From PubChem BioAssay (NCI)
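Assay format: 96-well plates, 48-hour exposure. Here, GI50 denotes the concentration required for 50% inhibition of growth. At the TGI there is no net growth.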

Columns and labels:
Test in all cases: growth of human tumour cells (NCI), 48 h; in the data active means GI50 below about 0.43 µM; inactive means the rest
[1] = system: HL-60(TB) leukemia
[2] = system: NCI-H522 lung
[3] = system: RXF 393 renal
[4] = system: HOP-92 NSCLC
[5] = system: NCI-H23 lung
[6] = system: NCI-H226 lung
[7] = system: SNB-19 CNS
[8] = system: COLO 205 colon
[9] = system: DU-145 prostate
[10] = system: U251 CNS
[11] = system: SR leukemia
[12] = system: RPMI-8226 leukemia
[13] = system: MDA-MB-435
[14] = system: UACC-62 melanoma
[15] = system: EKVX NSCLC
[16] = system: SK-OV-3 ovarian
[17] = system: SN12C renal
[18] = system: SNB-75 CNS
[19] = system: A498 renal
[20] = system: T-47D breast
[21] = system: PC-3 prostate
[22] = system: UACC-257 melanoma
[23] = system: HT29 colon
[24] = system: MOLT-4 leukemia
[25] = system: SK-MEL-5 melanoma
[26] = system: SF-295 CNS
[27] = system: OVCAR-5 ovarian
[28] = system: HCT-15 colon
[29] = system: A549 NSCLC
[30] = system: OVCAR-8 ovarian
[31] = system: LOX IMVI melanoma
[32] = system: K-562 leukemia
[33] = system: CCRF-CEM leukemia
[34] = system: UO-31 renal
[35] = system: MCF7 breast
[36] = system: KM12 colon
[37] = system: SF-268 CNS
[38] = system: HS 578T breast
[39] = system: NCI/ADR-RES ovarian
[40] = system: M14 melanoma
[41] = system: HOP-62 NSCLC
[42] = system: TK-10 renal
[43] = system: SF-539 CNS
[44] = system: ACHN renal
[45] = system: SK-MEL-2 melanoma
[46] = system: SW-620 colon
[47] = system: MALME-3M melanoma
[48] = system: IGROV1 ovarian
[49] = system: CAKI-1 renal
[50] = system: 786-0 renal
[51] = system: MDA-MB-231 breast
[52] = system: SK-MEL-28 melanoma
[53] = system: HCC-2998 colon
[54] = system: BT-549 breast

CNc1ccc(N=Nc2cccc3ncccc23)cc1
> 88.7 µM: TGI [11]
> 100 µM: TGI [1] | TGI [2] | TGI [3] | TGI [4] | TGI [5] | TGI [6] | TGI [7] | TGI [8] | TGI [9] | TGI [10] | TGI [13] | TGI [14] | TGI [15] | TGI [16] | TGI [17] | TGI [18] | TGI [21] | TGI [22] | TGI [23] | TGI [24] | TGI [25] | TGI [26] | TGI [27] | TGI [28] | TGI [29] | TGI [30] | TGI [31] | TGI [32] | TGI [33] | TGI [34] | TGI [35] | TGI [36] | TGI [37] | TGI [38] | TGI [39] | TGI [40] | TGI [41] | TGI [42] | TGI [43] | TGI [44] | TGI [45] | TGI [46] | TGI [47] | TGI [48] | TGI [49] | TGI [50] | TGI [51] | TGI [52] | TGI [53] | TGI [54]
> 68.4 µM: TGI [19]
inactive: GI50 [1] 4.88 µM | GI50 [2] 43.7 µM | GI50 [3] 28.7 µM | GI50 [4] 24.3 µM | GI50 [5] 17.1 µM | GI50 [6] > 100 µM | GI50 [7] > 80.6 µM | GI50 [8] 2.48 µM | GI50 [9] > 100 µM | GI50 [10] 31.5 µM | GI50 [11] 16.1 µM | GI50 [12] 7.43 µM | GI50 [13] 19.7 µM | GI50 [14] 13.1 µM | GI50 [15] 3.62 µM | GI50 [16] > 73.9 µM | GI50 [17] 36.5 µM | GI50 [18] 21.2 µM | GI50 [21] 15.3 µM | GI50 [22] > 92.8 µM | GI50 [23] 37.5 µM | GI50 [24] 14.2 µM | GI50 [25] 23 µM | GI50 [26] 17.8 µM | GI50 [28] 16.1 µM | GI50 [29] 50.9 µM | GI50 [30] 98.1 µM | GI50 [31] 22.3 µM | GI50 [32] 19.3 µM | GI50 [33] > 24 µM | GI50 [34] 0.89 µM | GI50 [36] 34.3 µM | GI50 [37] 39.3 µM | GI50 [38] 24.7 µM | GI50 [39] 23.3 µM | GI50 [40] 44.3 µM | GI50 [41] 49 µM | GI50 [42] > 100 µM | GI50 [43] 63.8 µM | GI50 [44] 20.8 µM | GI50 [45] > 100 µM | GI50 [46] 37.1 µM | GI50 [47] > 58.4 µM | GI50 [49] 6 µM | GI50 [50] > 88.4 µM | GI50 [51] 7.47 µM | GI50 [52] > 100 µM | GI50 [53] 33.5 µM | GI50 [54] 24.4 µM
> 65.6 µM: TGI [12]
> 77.1 µM: TGI [20]
active: GI50 [20] 0.0346 µM | GI50 [27] 0.0278 µM | GI50 [35] 0.0261 µM
